According to patent US9718781B2, “Methods and compounds for treating proliferative disorders and viral infections” (University College Dublin, National University of Ireland, …, priority 2012, dated 2017):

Experiments:
[1] = test system: MDA-MB-231-D3H2LN-Luc cells; test: Spontaneous/orthotopic breast cancer model, mammary fat pad injection; assay type: in vivo; conditions: for First Appearance of Mets, Mean ± S.E.M.: lymph node metastases; for Day of Sacrifice Mean ± S.E.M.: primary tumor reaching 15 mm
Text: In order to further assess the efficacy of TP20 for use as an anti-cancer, affecting primary tumor growth, and/or as an anti-metastatic agent, a spontaneous/orthotopic cancer model was employed by injection of the triple negative MDA-MB-231 breast cancer cell line (ER, PR, Her2 negative) into the mammary fat pad of immune compromised Balb-C nude mice. More specifically, in order to increase the growth rate of the primary tumor and increase the incidence of metastasis, a more aggressive variant of the MDA-MB-231 cell line, namely MDA-MB-231-D3H2LN-Luc (Jenkins et al., (2005), Breast Cancer Res, 7, 444-454), was used in the studies described below. Furthermore, the latter MDA-MB-231-D3H2LN-Luc cell line stably over-expresses the firefly luciferase gene (Luc) thereby enabling monitoring and in vivo detection of both the primary tumor and of the secondary metastasis by bioluminescent imaging in addition to assessment of the growth of the primary tumor by standard caliper measurements. In total, three groups of animals were studied and the diagram below gives an overview of the study design. FIG. 7 provides a diagram of a study design.
Body weights of the BALB/c nude mice were recorded prior to initiating the study and, thereafter, 3 times per week (Monday, Wednesday & Friday) following the mammary fat pad injection up to the point of sacrifice or death of the animal, as per welfare guidelines. Animals were typically sacrificed once the primary tumor reached 15 mm or, as required, if animals needed to be culled for welfare reasons.
BALB/C-nude mice (female, 5-7 weeks old) were pre-treated 24 and 4 hr with TP20 at 0.36 mg/kg (blue line; Group 1), 1 mg/kg (red line; Group 2) or as control, vehicle (1% DMSO in PBS; black line; Group 3) prior to injecting MDA-MB-231-D3H2LN-Luc cells (50 μl, 2×106 suspended in 50% DPBS/50% Matrigel) into the mammary fat pad with a 27.5 G needle. Thereafter, mice were treated with TP20 or vehicle thrice weekly (Monday, Wednesday & Friday) until the primary tumor width reached 15 mm. Body weight was monitored 3 times per week. The data presented represents the mean (FIG. 8A; ±S.E.M.) or Percentage in Body Weight (FIG. 8B; ±S.E.M.), where weight at day −1 is 100%.
Through the duration of the study to monitor the growth of the primary (1°) tumor, for welfare and experimental reasons, caliper measurements were performed thrice weekly (i.e., Monday, Wednesday & Friday) and involved measuring the width and length of the primary tumor mass. These measurements were then used in the following formula to calculate the tumor volume (mm3): Volume of Tumor (mm3)=length×width2×0.5
BALB/C-nude mice (female, 5-7 weeks old) were pre-treated 24 and 4 hr with TP20 at 0.36 mg/kg (blue line; Group 1), 1 mg/kg (red line; Group 2) or as control, vehicle (1% DMSO; black line; Group 3) prior to injecting MDA-MB-231-D3H2LN-Luc cells (50 μl, 2×106 suspended in 50% DPBS/50% Matrigel) into the mammary fat pad with a 27.5 G needle. Thereafter, mice were treated with TP20 or vehicle thrice weekly (Monday, Wednesday & Friday) until the primary tumor diameter reached 15 mm. Primary tumor growth was monitored thrice weekly using caliper measurements where tumor volume (mm3) is calculated by the formula Volume=Length×width2×0.5. The data presented represents the mean (±S.E.M.) tumor volume (mm3) for each of the treatment groups as a function of time (days). Fine black lines represent the linear trend for each of the treatment groups.
As the 1° tumors reached 15 mm in diameter, for welfare reasons the animals were sacrificed. The day of sacrifice was analyzed using Kaplan-Meier survival analysis and subsequent Log-Rank and Wilcoxon tests to compare any differences between the treatments groups in terms of time of death. […]

[2] = Phase 1 safety/tolerability study, repeat oral dosing; conditions: 360 μg/kg oral gavage twice daily
Description: Data is presented as mean body weight (±S.E.M.; FIG. 12A) or as mean percentage change in body weight (±S.E.M.; FIG. 12B) as a function of time.

human platelets = test: Thrombin-induced platelet aggregation of human platelets ex vivo; assay type: cell-based
Text: The method of assessing platelet aggregation also allows evaluation of the effect of the compounds of the invention on platelet aggregation upon stimulation by other agonists, e.g., adenosine diphosphate (ADP) and thrombin.

[3] = test system: MDA-MB-231-2003 breast cancer cells; test: Experimental metastasis breast tumor xenograft model in SCID mice; assay type: in vivo; conditions: 360 μg/kg i.p. 24 hr and 4 hr before tumor cell injection
Description: An anticancer agent including a compound represented by formula X (hereinafter “X”) was evaluated for the ability to inhibit tumor growth and experimental metastasis in a breast tumor xenograft model in immunocompromised (SCID) mice.
MDA-MB-231-2003 breast cancer cells (1×10^6 in 0.1 ml PBS) were injected into the lateral tail vein of female SCID mice and the ability of X to inhibit metastasis to the lung was investigated (n=5 for the test X treated-mice or n=4 for the control PBS-treated mice). Mice were initially treated via intraperitoneal (i.p.) injection with either X (360 μg/kg; ˜5 μM final concentration in blood; the “test” mice) or with PBS (the “control” mice) some 24 hr. before tumor cell injection. A second injection (i.p.) was given at the same dosage of X (360 μg/kg) at 4 hr. before tumor cell injection to the test mice while the control mice received an equivalent volume of PBS before tumor cell injection. […] Thereafter, all mice were monitored by image analysis (IVIS® imaging system) every two weeks for tumor cells in their lungs and were sacrificed at day 28 post tumor cell injection.

SMILES: COc1ccc(-c2cccc(Oc3ccc([N+](=O)[O-])cc3S(=O)(=O)NC(=O)NC(C)(C)C)c2)cc1 [TP20, N-(tert-butylcarbamoyl)-2-((4′-methoxy-[1,1′-biphenyl]-3-yl)oxy)-5-nitrobenzene-sulfonamide]
- effect on primary tumor growth ([1]; 0.36 mg/kg and 1 mg/kg vs. vehicle): significantly decreases the primary tumor growth
- tolerability of repeat administration (body weight) ([1]; 0.36 mg/kg and 1 mg/kg, thrice weekly): well-tolerated
- First Appearance of Mets, Mean ± S.E.M. ([1]; Group 1, 0.36 mg/kg): 22.5 ± 2.16 (N = 8) days
- Day of Sacrifice Mean ± S.E.M. ([1]; Group 1, 0.36 mg/kg): 38.5 ± 2.83 (N = 8) days
- First Appearance of Mets, Mean ± S.E.M. ([1]; Group 2, 1 mg/kg): 26.2 ± 3.71 (N = 9) days
- Day of Sacrifice Mean ± S.E.M. ([1]; Group 2, 1 mg/kg): 38.4 ± 3.86 (N = 7) days
- tolerability [2]: well tolerated with no safety issues/concerns
- survival on repeat dosing ([2]; 14 days monitoring): All mice survived
- weight loss ([2]; at Day 7): ~4%
- effect on thrombin-induced platelet aggregation (human platelets): did not affect
- lung tumor development ([3]; day 28): did not develop any tumors
- mice surviving to the end of the experiment (day 28) ([3]; n=5): 5
